Data reported in PubChem BioAssay AID330 (DTP/NCI, 2004).
Values joined by “and” are separate entries in the source; they are usually repeats but may differ in a detail not shown here. Equal values may be shown once. Inconclusive results and toxic doses are left out. The calls were made as follows: active = survival T/C of 150% or more; inactive = T/C below 125% in these data.

Test system: P388 leukemia ip, CD2F1 mice, survival T/C
Experiment: NCI In Vivo Anticancer Drug Screen. Data for tumor model P388 Leukemia (intraperitoneal) in CD2F1 (CDF1) mice
Conditions: endpoint: median survival time, higher = longer survival
Summary of the method: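 Mice carrying the transplanted tumor received test compound or vehicle. Survival was recorded in each group, and the value is the treated-group measurement divided by that of the vehicle-treated control group.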

[1] = dose: 50.0 mg/kg/injection, schedule: Q01DX009 (ip), vehicle: saline with Tween-80
[2] = dose: 100.0 mg/kg/injection, schedule: Q01DX009 (ip), vehicle: saline with Tween-80
[3] = dose: 200.0 mg/kg/injection, schedule: Q01DX009 (ip), vehicle: saline with Tween-80
[4] = dose: 50.0 mg/kg/injection, schedule: Q01DX009 (ip), vehicle: saline
[5] = dose: 100.0 mg/kg/injection, schedule: Q01DX009 (ip), vehicle: saline
[6] = dose: 200.0 mg/kg/injection, schedule: Q01DX009 (ip), vehicle: saline
[7] = dose: 60.0 mg/kg/injection, schedule: Q01DX005 (ip), vehicle: saline with Tween-80
[8] = dose: 120.0 mg/kg/injection, schedule: Q01DX005 (ip), vehicle: saline with Tween-80
[9] = dose: 240.0 mg/kg/injection, schedule: Q01DX005 (ip), vehicle: saline with Tween-80
[10] = dose: 100.0 mg/kg/injection, schedule: Q04DX003 (ip), vehicle: saline with Tween-80
[11] = dose: 200.0 mg/kg/injection, schedule: Q04DX003 (ip), vehicle: saline with Tween-80
[12] = dose: 25.0 mg/kg/injection, schedule: Q01DX005 (ip), vehicle: Klucel (hydroxypropylcellulose) (HPC)
[13] = dose: 50.0 mg/kg/injection, schedule: Q01DX005 (ip), vehicle: Klucel (hydroxypropylcellulose) (HPC)
[14] = dose: 100.0 mg/kg/injection, schedule: Q01DX005 (ip), vehicle: Klucel (hydroxypropylcellulose) (HPC)
[15] = dose: 200.0 mg/kg/injection, schedule: Q01DX005 (ip), vehicle: Klucel (hydroxypropylcellulose) (HPC)
[16] = dose: 60.0 mg/kg/injection, schedule: Q01DX005 (ip), vehicle: Klucel (hydroxypropylcellulose) (HPC)
[17] = dose: 120.0 mg/kg/injection, schedule: Q01DX005 (ip), vehicle: Klucel (hydroxypropylcellulose) (HPC)
[18] = dose: 240.0 mg/kg/injection, schedule: Q01DX005 (ip), vehicle: Klucel (hydroxypropylcellulose) (HPC)
[19] = dose: 100.0 mg/kg/injection, schedule: Q01DX001 (ip), vehicle: Klucel (hydroxypropylcellulose) (HPC)
[20] = dose: 200.0 mg/kg/injection, schedule: Q01DX001 (ip), vehicle: Klucel (hydroxypropylcellulose) (HPC)
[21] = dose: 400.0 mg/kg/injection, schedule: Q01DX001 (ip), vehicle: Klucel (hydroxypropylcellulose) (HPC)

Measured: T/C

COc1cc(/C=N/NC(=O)C(=O)N/N=C/c2cc(OC)c(OC)c(OC)c2)cc(OC)c1OC
inactive: dose: 50.0 mg/kg/injection, schedule: Q01DX009 (ip), vehicle: Klucel (hydroxypropylcellulose) (HPC) 89 % of control | dose: 100.0 mg/kg/injection, schedule: Q01DX009 (ip), vehicle: Klucel (hydroxypropylcellulose) (HPC) 95 % of control | dose: 200.0 mg/kg/injection, schedule: Q01DX009 (ip), vehicle: Klucel (hydroxypropylcellulose) (HPC) 93 % of control

CC(O)CC1(c2ccccc2)C(=O)NC(=O)NC1=O (stereo not given)
inactive: [1] 98 % of control | [2] 98 % of control | [3] 95 % of control

Clc1cccc(/C=C/c2ccnnc2)c1
inactive: [4] 101 % of control | [5] 86 % of control and 97 % of control | [6] 103 % of control and 96 % of control

C[n+]1c(C[n+]2ccccc2)ccc2ccccc21
inactive: dose: 50.0 mg/kg/injection, schedule: Q01DX005 (ip), vehicle: saline 105 % of control | dose: 100.0 mg/kg/injection, schedule: Q01DX005 (ip), vehicle: saline 106 % of control

O=[N+]([O-])c1ccc(Oc2c3ccccc3nc3ccccc23)cc1
inactive: dose: 50.0 mg/kg/injection, schedule: Q01DX005 (ip), vehicle: saline with Tween-80 90 % of control | dose: 100.0 mg/kg/injection, schedule: Q01DX005 (ip), vehicle: saline with Tween-80 90 % of control | dose: 200.0 mg/kg/injection, schedule: Q01DX005 (ip), vehicle: saline with Tween-80 93 % of control

NNC1=Nc2cc3c(cc2C(=O)N2C[C@H](O)CC12)OCO3 (stereo not given in full)
inactive: dose: 100.0 mg/kg/injection, schedule: Q01DX001 (ip), vehicle: saline with Tween-80 100 % of control | dose: 200.0 mg/kg/injection, schedule: Q01DX001 (ip), vehicle: saline with Tween-80 100 % of control | dose: 400.0 mg/kg/injection, schedule: Q01DX001 (ip), vehicle: saline with Tween-80 99 % of control

NNC(=O)CC(NN)c1ccccc1O (stereo not given)
inactive: [7] 104 % of control | [8] 105 % of control | [9] 105 % of control

CC(C(=O)O)C1(O)CCCCC1 (stereo not given)
inactive: dose: 12.5 mg/kg/injection, schedule: Q01DX009 (ip), vehicle: saline with Tween-80 99 % of control | dose: 25.0 mg/kg/injection, schedule: Q01DX009 (ip), vehicle: saline with Tween-80 105 % of control | [1] 102 % of control | [2] 106 % of control

CC12CCC(C3(C)CCC4CC3(O)C4)C(CO)C1CCC2=O (stereo not given)
inactive: dose: 7.5 mg/kg/injection, schedule: Q01DX005 (ip), vehicle: Klucel (hydroxypropylcellulose) (HPC) 96 % of control | dose: 15.0 mg/kg/injection, schedule: Q01DX005 (ip), vehicle: Klucel (hydroxypropylcellulose) (HPC) 103 % of control | dose: 30.0 mg/kg/injection, schedule: Q01DX005 (ip), vehicle: Klucel (hydroxypropylcellulose) (HPC) 98 % of control

CN(C)P(=O)(N(C)C)N1CCC1
inactive: [4] 104 % of control | [5] 112 % of control

Cc1cc(N2C(=O)CCSC2=S)ccc1Br
inactive: dose: 50.0 mg/kg/injection, schedule: Q01DX009 (ip), vehicle: suspension in saline 87 % of control | dose: 100.0 mg/kg/injection, schedule: Q01DX009 (ip), vehicle: suspension in saline 104 % of control | dose: 200.0 mg/kg/injection, schedule: Q01DX009 (ip), vehicle: suspension in saline 116 % of control

COC(=O)c1ccc(C)cc1C(=O)OC
inactive: dose: 50.0 mg/kg/injection, schedule: Q04DX003 (ip), vehicle: saline with Tween-80 100 % of control | [10] 100 % of control | [11] 104 % of control

Nc1ccc(N=Nc2cccc3c(N=Nc4ccc(N)nc4N)cccc23)c(N)n1
inactive: [12] 97 % of control | [13] 100 % of control | [14] 98 % of control | [15] 93 % of control

CCN(CC)CC1(CC(=O)N2c3ccccc3Sc3ccccc32)COC1
inactive: [4] 107 % of control | [5] 100 % of control | [6] 105 % of control

O=C(N/C=C/c1ccco1)NC1CCCCCCCCCCC1
inactive: dose: 12.5 mg/kg/injection, schedule: Q01DX005 (ip), vehicle: Klucel (hydroxypropylcellulose) (HPC) 95 % of control | [12] 92 % of control | [13] 89 % of control

O=C/C(Cl)=C(/Cl)C(=O)O
inactive: dose: 2.5 mg/kg/injection, schedule: Q01DX009 (ip), vehicle: saline with Tween-80 110 % of control and 123 % of control | dose: 5.0 mg/kg/injection, schedule: Q01DX009 (ip), vehicle: saline with Tween-80 117 % of control and 121 % of control | dose: 10.0 mg/kg/injection, schedule: Q01DX009 (ip), vehicle: saline with Tween-80 120 % of control and 121 % of control

CC(=O)OCC1OC(Sc2nnc(-c3ccccc3)c(-c3ccccc3)n2)C(OC(C)=O)C(OC(C)=O)C1OC(C)=O (stereo not given)
inactive: [1] 107 % of control | [2] 98 % of control | [3] 100 % of control

CCNC(=O)c1ccccc1S(C)=O (stereo not given)
inactive: [7] 99 % of control | [8] 111 % of control | [9] 104 % of control

CCN(Cc1c(C)[nH]c2cc(N(C)C)ccc2c1=O)Cc1c(C)[nH]c2cc(N(C)C)ccc2c1=O
inactive: [16] 90 % of control | [17] 92 % of control | [18] 91 % of control

N#CCCN(N)S(=O)(=O)c1ccccc1
inactive: [13] 99 % of control | [14] 99 % of control | [15] 98 % of control

CC(C)=CCC(OC(=O)CC(C)C)C1=CC(=O)c2c(O)ccc(O)c2C1=O (stereo not given)
inactive: dose: 6.25 mg/kg/injection, schedule: Q01DX005 (ip), vehicle: saline with Tween-80 94 % of control | dose: 12.5 mg/kg/injection, schedule: Q01DX005 (ip), vehicle: saline with Tween-80 103 % of control | dose: 25.0 mg/kg/injection, schedule: Q01DX005 (ip), vehicle: saline with Tween-80 99 % of control

CCN1C(SC)=NC(=O)C1(c1ccc(C)cc1)c1ccc(C)cc1
inactive: [13] 100 % of control | [14] 106 % of control | [15] 98 % of control

O=C(O)CSc1ncccc1Nc1ccc([N+](=O)[O-])cn1
inactive: [4] 102 % of control | [5] 86 % of control

Clc1ccc2c3c([nH]c2c1)CCc1cncnc1-3
inactive: [19] 93 % of control | [20] 90 % of control | [21] 90 % of control

Cc1ccc([N+](=O)[O-])cc1NC(=O)COc1ccc(Cl)cc1
inactive: [10] 100 % of control | [11] 90 % of control | dose: 400.0 mg/kg/injection, schedule: Q04DX003 (ip), vehicle: saline with Tween-80 90 % of control

Cc1cccc(-n2c(-c3ccccc3)cs/c2=N\N=C2/CSC(=O)N2Cc2ccccc2)c1
inactive: [19] 101 % of control | [20] 101 % of control | [21] 99 % of control

O=C(Nc1ccc([N+](=O)[O-])cc1)Nc1nccs1
inactive: dose: 12.5 mg/kg/injection, schedule: Q01DX009 (ip), vehicle: distilled water + Tween-80 108 % of control and 112 % of control and 115 % of control | dose: 25.0 mg/kg/injection, schedule: Q01DX009 (ip), vehicle: distilled water + Tween-80 120 % of control | dose: 50.0 mg/kg/injection, schedule: Q01DX009 (ip), vehicle: distilled water + Tween-80 119 % of control

O=C1CN2C=CC=CC2=NN1
inactive: dose: 60.0 mg/kg/injection, schedule: Q01DX005 (ip), vehicle: saline 100 % of control | dose: 120.0 mg/kg/injection, schedule: Q01DX005 (ip), vehicle: saline 99 % of control | dose: 240.0 mg/kg/injection, schedule: Q01DX005 (ip), vehicle: saline 101 % of control

CC(/C=C/c1ccccc1)=N\NC(=O)c1ccccc1O
inactive: [16] 93 % of control | [17] 95 % of control | [18] 89 % of control

COC(=O)CC1C2(C)CC34OC5(C)OC6(C7CC(=O)OC(c8ccoc8)C7(C)CCC6(O5)C13C)C(OC(=O)C(C)C)C4(O)C2OC(=O)C(C)C (stereo not given)
inactive: dose: 0.37 mg/kg/injection, schedule: Q01DX009 (ip), vehicle: Klucel (hydroxypropylcellulose) (HPC) 109 % of control | dose: 0.75 mg/kg/injection, schedule: Q01DX009 (ip), vehicle: Klucel (hydroxypropylcellulose) (HPC) 109 % of control | dose: 1.5 mg/kg/injection, schedule: Q01DX009 (ip), vehicle: Klucel (hydroxypropylcellulose) (HPC) 102 % of control | dose: 3.0 mg/kg/injection, schedule: Q01DX009 (ip), vehicle: Klucel (hydroxypropylcellulose) (HPC) 101 % of control
